# Data taken from ChEMBL document CHEMBL5614451, “Structure-Activity Relationship of Oxacyclo- and Triazolo-Containing Respiratory Syncytial Virus Polymerase Inhibitors” (ACS Med Chem Lett, 2024).
# System: not listed separately
# Test: Inhibition of RSV RdRp L/P
# Parameters: species or system Respiratory syncytial virus
# Conditions: not given
row,IC50,Compound
1,0.29 nM,COc1cc(C(=O)NC[C@](O)(c2cc(C(C)(C)O)c(F)c(-c3ccc(F)cc3)n2)C(F)(F)F)cc2cc(C)nnc12

# System: Respiratory syncytial virus
# Test: Antiviral activity against RSV
# Type: functional, organism-based
# Conditions: human respiratory syncytial virus
row,EC50,Compound
1,0.38 nM,COc1cc(C(=O)NC[C@](O)(c2cc(C(C)(C)O)c(F)c(-c3ccc(F)cc3)n2)C(F)(F)F)cc2cc(C)nnc12

# System: not listed separately
# Test: Intrinsic clearance in rat liver microsome at 1 uM preincubated for 5 mins followed by NADPH addition measured upto 60 mins by LC-MS/MS analysis
# Type: ADME
# Conditions: liver microsomes, time 65 min, read-out: CLH
row,microsomal CLint at 1 µM,Compound
1,42.7 µL/min/mg,COc1cc(-c2cn(CC3(c4cc(C(C)(C)O)c(F)c(-c5ccc(F)cc5)n4)CCO3)nn2)cc2cccnc12 (stereo unspecified)
2,168 µL/min/mg,COc1cc(C(=O)NCC(O)(c2cc(C(C)(C)O)c(F)c(-c3ccc(F)cc3)n2)C(F)(F)F)cc2cccnc12 (stereo unspecified)
3,10.8 µL/min/mg,COc1cc(-c2cn(CC(=O)c3cc(C(C)(C)O)c(F)c(-c4ccc(F)cc4)n3)nn2)cc2cccnc12
4,< 7.7 µL/min/mg,COc1cc(-c2cn(C[C@](O)(c3cc(C(C)(C)O)c(F)c(-c4ccc(F)cc4)n3)C(F)(F)F)nn2)cc2cccnc12

# System: Respiratory syncytial virus
# Test: Antiviral activity against RSV A2 expressing e-GFP infected in human HeLa cells incubated for 3 days by […]
# Type: functional, organism-based
# Conditions: 72 h
row,Compound,EC50
1,COc1cc(C(=O)NCC(O)(c2cc(C(C)(C)O)c(F)c(-c3ccc(F)cc3)n2)C(F)(F)F)cc2cccnc12 (stereo unspecified),11 nM
2,COc1cc(C(=O)NCC2(c3cc(C(C)(C)O)c(F)c(-c4ccc(F)cc4)n3)CC(=O)CO2)cc2cc(C)nnc12 (stereo unspecified),18 nM
3,COc1cc(-c2cn(CC(=O)c3cc(C(C)(C)O)c(F)c(-c4ccc(F)cc4)n3)nn2)cc2cccnc12,200 nM
4,COc1cc(C(=O)NCC2(c3cc(C(C)(C)O)c(F)c(-c4ccc(F)cc4)n3)CC(O)CO2)cc2cc(C)nnc12 (stereo unspecified),17 nM
5,COc1cc(-c2cn(C[C@](O)(c3cc(C(C)(C)O)c(F)c(-c4ccc(F)cc4)n3)C(F)(F)F)nn2)cc2cccnc12,74 nM
6,COc1cc(C(=O)NCC2(c3cc(C(C)(C)O)c(F)c(-c4ccc(F)cc4)n3)CCCCO2)cc2cc(C)nnc12 (stereo unspecified),170 nM
7,COc1cc(-c2cn(CC3(c4cc(C(C)(C)O)c(F)c(-c5ccc(F)cc5)n4)CCCO3)nn2)cc2cccnc12 (stereo unspecified),108 nM

# The remaining lines, values ahead:
row,EC50,Compound
1,10 nM,COc1cc(-c2cn(CC3(c4cc(C(C)(C)O)c(F)c(-c5ccc(F)cc5)n4)CCO3)nn2)cc2cccnc12 (stereo unspecified)
2,6.5 nM,COc1cc(C(=O)NCC(=O)c2cc(C(C)(C)O)c(F)c(-c3ccc(F)cc3)n2)cc2cc(C)nnc12
3,1.2 nM,COc1cc(C(=O)NCC2(c3cc(C(C)(C)O)c(F)c(-c4ccc(F)cc4)n3)OCCO2)cc2cc(C)nnc12
4,0.41 nM,COc1cc(C(=O)NCC2(c3cc(C(C)(C)O)c(F)c(-c4ccc(F)cc4)n3)OCCC23CC3)cc2cc(C)nnc12 (stereo unspecified)
5,0.73 nM,COc1cc(C(=O)NCC2(c3cc(C(C)(C)O)c(F)c(-c4ccc(F)cc4)n3)CCCO2)cc2cc(C)nnc12 (stereo unspecified)
6,2.3 nM,COc1cc(C(=O)NCC2(c3cc(C(C)(C)O)c(F)c(-c4ccc(F)cc4)n3)CC(F)(F)CO2)cc2cc(C)nnc12 (stereo unspecified)
7,0.22 nM,COc1cc(C(=O)NCC2(c3cc(C(C)(C)O)c(F)c(-c4ccc(F)cc4)n3)OCCC2=O)cc2cc(C)nnc12 (stereo unspecified)
8,0.13 nM,COc1cc(C(=O)NCC2(c3cc(C(C)(C)O)c(F)c(-c4ccc(F)cc4)n3)OCCC2O)cc2cc(C)nnc12 (stereo unspecified)

# System: not listed separately
# Test: Intrinsic clearance in human liver microsome at 1 uM preincubated for 5 mins followed by NADPH addition measured upto 60 mins by LC-MS/MS analysis
# Type: ADME
# Conditions: liver microsomes, time 65 min, read-out: CLH
row,Compound,microsomal CLint at 1 µM
1,COc1cc(C(=O)NCC(O)(c2cc(C(C)(C)O)c(F)c(-c3ccc(F)cc3)n2)C(F)(F)F)cc2cccnc12 (stereo unspecified),12.1 µL/min/mg
2,COc1cc(C(=O)NCC2(c3cc(C(C)(C)O)c(F)c(-c4ccc(F)cc4)n3)CC(=O)CO2)cc2cc(C)nnc12 (stereo unspecified),126 µL/min/mg
3,COc1cc(-c2cn(CC(=O)c3cc(C(C)(C)O)c(F)c(-c4ccc(F)cc4)n3)nn2)cc2cccnc12,14.3 µL/min/mg
4,COc1cc(C(=O)NCC2(c3cc(C(C)(C)O)c(F)c(-c4ccc(F)cc4)n3)CC(O)CO2)cc2cc(C)nnc12 (stereo unspecified),14.6 µL/min/mg
5,COc1cc(-c2cn(C[C@](O)(c3cc(C(C)(C)O)c(F)c(-c4ccc(F)cc4)n3)C(F)(F)F)nn2)cc2cccnc12,< 7.7 µL/min/mg
6,COc1cc(C(=O)NCC2(c3cc(C(C)(C)O)c(F)c(-c4ccc(F)cc4)n3)CCCCO2)cc2cc(C)nnc12 (stereo unspecified),> 347 µL/min/mg
7,COc1cc(-c2cn(CC3(c4cc(C(C)(C)O)c(F)c(-c5ccc(F)cc5)n4)CCCO3)nn2)cc2cccnc12 (stereo unspecified),> 347 µL/min/mg

# Other lines, results leading:
row,microsomal CLint at 1 µM,Compound
1,54.2 µL/min/mg,COc1cc(-c2cn(CC3(c4cc(C(C)(C)O)c(F)c(-c5ccc(F)cc5)n4)CCO3)nn2)cc2cccnc12 (stereo unspecified)
2,9.5 µL/min/mg,COc1cc(C(=O)NCC(=O)c2cc(C(C)(C)O)c(F)c(-c3ccc(F)cc3)n2)cc2cc(C)nnc12
3,13.3 µL/min/mg,COc1cc(C(=O)NCC2(c3cc(C(C)(C)O)c(F)c(-c4ccc(F)cc4)n3)OCCO2)cc2cc(C)nnc12
4,> 347 µL/min/mg,COc1cc(C(=O)NCC2(c3cc(C(C)(C)O)c(F)c(-c4ccc(F)cc4)n3)OCCC23CC3)cc2cc(C)nnc12 (stereo unspecified)
5,> 20 µL/min/mg,COc1cc(C(=O)NCC2(c3cc(C(C)(C)O)c(F)c(-c4ccc(F)cc4)n3)CCCO2)cc2cc(C)nnc12 (stereo unspecified)
6,117 µL/min/mg,COc1cc(C(=O)NCC2(c3cc(C(C)(C)O)c(F)c(-c4ccc(F)cc4)n3)CC(F)(F)CO2)cc2cc(C)nnc12 (stereo unspecified)
7,110 µL/min/mg,COc1cc(C(=O)NCC2(c3cc(C(C)(C)O)c(F)c(-c4ccc(F)cc4)n3)OCCC2=O)cc2cc(C)nnc12 (stereo unspecified)
8,18.4 µL/min/mg,COc1cc(C(=O)NCC2(c3cc(C(C)(C)O)c(F)c(-c4ccc(F)cc4)n3)OCCC2O)cc2cc(C)nnc12 (stereo unspecified)

# System: not listed separately
# Test: Inhibition of RSV RdRp L/P measured after 120 mins by SPA
# Parameters: species or system Respiratory syncytial virus
# Conditions: not given
row,Compound,IC50
1,COc1cc(C(=O)NCC(O)(c2cc(C(C)(C)O)c(F)c(-c3ccc(F)cc3)n2)C(F)(F)F)cc2cccnc12 (stereo unspecified),0.63 nM
2,COc1cc(C(=O)NCC2(c3cc(C(C)(C)O)c(F)c(-c4ccc(F)cc4)n3)CC(=O)CO2)cc2cc(C)nnc12 (stereo unspecified),2.5 nM
3,COc1cc(-c2cn(CC(=O)c3cc(C(C)(C)O)c(F)c(-c4ccc(F)cc4)n3)nn2)cc2cccnc12,77 nM
4,COc1cc(C(=O)NCC2(c3cc(C(C)(C)O)c(F)c(-c4ccc(F)cc4)n3)CC(O)CO2)cc2cc(C)nnc12 (stereo unspecified),1.9 nM
5,COc1cc(-c2cn(C[C@](O)(c3cc(C(C)(C)O)c(F)c(-c4ccc(F)cc4)n3)C(F)(F)F)nn2)cc2cccnc12,16 nM
6,COc1cc(C(=O)NCC2(c3cc(C(C)(C)O)c(F)c(-c4ccc(F)cc4)n3)CCCCO2)cc2cc(C)nnc12 (stereo unspecified),44 nM
7,COc1cc(-c2cn(CC3(c4cc(C(C)(C)O)c(F)c(-c5ccc(F)cc5)n4)CCCO3)nn2)cc2cccnc12 (stereo unspecified),22 nM

# The remaining lines, values ahead:
row,IC50,Compound
1,4.1 nM,COc1cc(-c2cn(CC3(c4cc(C(C)(C)O)c(F)c(-c5ccc(F)cc5)n4)CCO3)nn2)cc2cccnc12 (stereo unspecified)
2,3.4 nM,COc1cc(C(=O)NCC(=O)c2cc(C(C)(C)O)c(F)c(-c3ccc(F)cc3)n2)cc2cc(C)nnc12
3,0.25 nM,COc1cc(C(=O)NCC2(c3cc(C(C)(C)O)c(F)c(-c4ccc(F)cc4)n3)OCCO2)cc2cc(C)nnc12
4,0.55 nM,COc1cc(C(=O)NCC2(c3cc(C(C)(C)O)c(F)c(-c4ccc(F)cc4)n3)OCCC23CC3)cc2cc(C)nnc12 (stereo unspecified)
5,0.8 nM,COc1cc(C(=O)NCC2(c3cc(C(C)(C)O)c(F)c(-c4ccc(F)cc4)n3)CCCO2)cc2cc(C)nnc12 (stereo unspecified)
6,0.78 nM,COc1cc(C(=O)NCC2(c3cc(C(C)(C)O)c(F)c(-c4ccc(F)cc4)n3)CC(F)(F)CO2)cc2cc(C)nnc12 (stereo unspecified)
7,0.1 nM,COc1cc(C(=O)NCC2(c3cc(C(C)(C)O)c(F)c(-c4ccc(F)cc4)n3)OCCC2=O)cc2cc(C)nnc12 (stereo unspecified)
8,1.9 nM,COc1cc(C(=O)NCC2(c3cc(C(C)(C)O)c(F)c(-c4ccc(F)cc4)n3)OCCC2O)cc2cc(C)nnc12 (stereo unspecified)

# System: not listed separately
# Test: Cytotoxicity against human HeLa cells incubated for 3 days by ATPlite analysis
# Type: toxicity, cell-based
# Conditions: time 3 day
row,Compound,CC50 at 72 h
1,COc1cc(-c2cn(CC3(c4cc(C(C)(C)O)c(F)c(-c5ccc(F)cc5)n4)CCO3)nn2)cc2cccnc12 (stereo unspecified),23600 nM
2,COc1cc(C(=O)NCC(O)(c2cc(C(C)(C)O)c(F)c(-c3ccc(F)cc3)n2)C(F)(F)F)cc2cccnc12 (stereo unspecified),16000 nM
3,COc1cc(C(=O)NCC2(c3cc(C(C)(C)O)c(F)c(-c4ccc(F)cc4)n3)CC(=O)CO2)cc2cc(C)nnc12 (stereo unspecified),> 5000 nM
4,COc1cc(-c2cn(CC(=O)c3cc(C(C)(C)O)c(F)c(-c4ccc(F)cc4)n3)nn2)cc2cccnc12,> 50000 nM
5,COc1cc(C(=O)NCC2(c3cc(C(C)(C)O)c(F)c(-c4ccc(F)cc4)n3)CC(O)CO2)cc2cc(C)nnc12 (stereo unspecified),> 5000 nM
6,COc1cc(C(=O)NCC(=O)c2cc(C(C)(C)O)c(F)c(-c3ccc(F)cc3)n2)cc2cc(C)nnc12,31000 nM
7,COc1cc(-c2cn(C[C@](O)(c3cc(C(C)(C)O)c(F)c(-c4ccc(F)cc4)n3)C(F)(F)F)nn2)cc2cccnc12,13000 nM
8,COc1cc(C(=O)NCC2(c3cc(C(C)(C)O)c(F)c(-c4ccc(F)cc4)n3)OCCO2)cc2cc(C)nnc12,> 50000 nM
9,COc1cc(C(=O)NCC2(c3cc(C(C)(C)O)c(F)c(-c4ccc(F)cc4)n3)OCCC23CC3)cc2cc(C)nnc12 (stereo unspecified),> 5000 nM
10,COc1cc(C(=O)NCC2(c3cc(C(C)(C)O)c(F)c(-c4ccc(F)cc4)n3)CCCO2)cc2cc(C)nnc12 (stereo unspecified),18000 nM
11,COc1cc(C(=O)NCC2(c3cc(C(C)(C)O)c(F)c(-c4ccc(F)cc4)n3)CC(F)(F)CO2)cc2cc(C)nnc12 (stereo unspecified),> 5000 nM
12,COc1cc(C(=O)NCC2(c3cc(C(C)(C)O)c(F)c(-c4ccc(F)cc4)n3)CCCCO2)cc2cc(C)nnc12 (stereo unspecified),> 25000 nM
13,COc1cc(-c2cn(CC3(c4cc(C(C)(C)O)c(F)c(-c5ccc(F)cc5)n4)CCCO3)nn2)cc2cccnc12 (stereo unspecified),> 5000 nM
14,COc1cc(C(=O)NCC2(c3cc(C(C)(C)O)c(F)c(-c4ccc(F)cc4)n3)OCCC2=O)cc2cc(C)nnc12 (stereo unspecified),> 5000 nM
15,COc1cc(C(=O)NCC2(c3cc(C(C)(C)O)c(F)c(-c4ccc(F)cc4)n3)OCCC2O)cc2cc(C)nnc12 (stereo unspecified),> 5000 nM
